Consider one molecule from patent US10265284B2, “Composition for use in the treatment of intervertebral disc-related pain” (STAYBLE THERAPEUTICS AB, priority 2015, dated 2019).

Format in all cases: in vivo, pig
Data set [1] in a line: Tolerability and adverse reactions after intradiscal injection, Example 1. As for the experimental part:
Two pigs were anesthetized and placed on their right side. Access to the L4-5 intervertebral disc was obtained through a lateral incision between the lowest rib and the iliac crest on the left side of each pig. Thereafter, the L3-4 intervertebral disc was incised with a scalpel.
The composition was injected in a single step at a single occasion.
At harvest, the pigs were killed.
The injection site was observed by the naked eye. […] The segment of the vertebral column extending from the lumbar vertebra L2 to the sacral vertebra S1 was removed. The facet joints were removed, thus allowing full flexibility of the discs with no restraints from other structures.

In data set [2] the test system is nucleus pulposus of the L3-4 intervertebral disc. Put plainly: Flexion stiffness of the injected L3-4 intervertebral disc, Example 1. Particulars: injected L 3-4 vs non-injected L 2-3 and L 4-5; seven days. The procedure: Access to the L4-5 intervertebral disc was obtained through a lateral incision between the lowest rib and the iliac crest on the left side of each pig. Thereafter, the L3-4 intervertebral disc was incised with a scalpel. […] The composition was injected in a single step at a single occasion.

The test system is the same in data set [3]. Put plainly: Dimension of the disc space after injection, Example 1. As for the experimental part:
110. performing a cross-section of the discs and measuring the length (anterio-posterior direction) and the width (bilateral direction) of the disc space. Two pigs were anesthetized and placed on their right side. Access to the L4-5 intervertebral disc was obtained through a lateral incision between the lowest rib and the iliac crest on the left side of each pig. Thereafter, the L3-4 intervertebral disc was incised with a scalpel. […] The composition was injected in a single step at a single occasion. The intervertebral discs (L2-3, L3-4, L4-5) were cross-sectioned and the length of the disc space (anterio-posterior direction) and the width (bilateral direction) of the disc space were measured by calipers. In FIGS. 5 and 6, an intervertebral disc is schematically shown in cross-section. The intervertebral disc comprises the annulus fibrosus 10, and a disc space defined by the annulus fibrosus and comprising the nucleus pulposus 11.

Setting [4] is: injected L 3-4 vs non-injected L2-3, L4-5, seven days.

`CC(O)C(=O)O` (stereo not drawn) [lactic acid]: in data set [1] (both pigs, period of seven days until harvest, 0.2 mL of 1.34 mol/L, pH 1.8, into L3-4 disc), the “Adverse reaction such as decreased mobility or vocalization” value is listed as “no adverse reaction”. The “Adverse reaction at the injection site, such as bleedings, inflammation or necrosis” value in data set [1] (naked eye at harvest, seven days after injection) was “No adverse reaction at the injection site”. In data set [2], the “Balanced value (flexion stiffness) of injected discs compared with non-injected adjacent discs” value was “much smaller balanced value”. In addition, the “Cross-sectional area of the disc space compared with non-injected discs” value in data set [3] (FIG. 7, injected L3-4 vs non-injected L2-3 and L4-5, naked eye) is “much smaller cross-sectional area”. Further, in data set [3] (setting [4]), the “Average anterio-posterior length of the disc space compared with non-injected discs” value is given as “significantly lower” and the “Average bilateral width of the disc space compared with non-injected discs” value is “significantly lower”.
